Reference: PubChem BioAssay AID1963873 (Molecular Pharmacology Branch, DTP, NCI, 2024)

Test system: 276233-004-R-J1-PDC KRAS spheroids with HUVEC/MSC, viability
Assay: Anticancer human tumor 276233-004-R-J1-PDC patient-derived colon adenocarcinoma cell line growth inhibition [KRAS2]
Conditions: for viability, T/C: stronger effect = lower value
In short: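 Combination screen of spheroid viability in tumor-cell co-cultures with endothelial (HUVEC) and mesenchymal stem cell stroma. Each agent was tested in half-log dilutions, topping at clinical Cmax or at 10 microM without a known Cmax.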

[1] = curve of first compound, second compound 0.1 µM
[2] = curve of first compound, second compound 0.316 µM
[3] = curve of first compound, second compound 1 µM
[4] = curve of first compound, second compound 3.16 µM
[5] = curve of first compound, second compound 10 µM
[6] = second compound 0.1 µM, first compound 0.01 µM
[7] = second compound 0.1 µM, first compound 0.0316 µM
[8] = second compound 0.1 µM, first compound 0.1 µM
[9] = second compound 0.1 µM, first compound 0.316 µM
[10] = second compound 0.1 µM, first compound 1 µM
[11] = second compound 0.1 µM, first compound 3.16 µM
[12] = second compound 0.316 µM, first compound 0.01 µM
[13] = second compound 0.316 µM, first compound 0.0316 µM
[14] = second compound 0.316 µM, first compound 0.1 µM
[15] = second compound 0.316 µM, first compound 0.316 µM
[16] = second compound 0.316 µM, first compound 1 µM
[17] = second compound 0.316 µM, first compound 3.16 µM
[18] = second compound 1 µM, first compound 0.01 µM
[19] = second compound 1 µM, first compound 0.0316 µM
[20] = second compound 1 µM, first compound 0.1 µM
[21] = second compound 1 µM, first compound 0.316 µM
[22] = second compound 1 µM, first compound 1 µM
[23] = second compound 1 µM, first compound 3.16 µM
[24] = second compound 3.16 µM, first compound 0.01 µM
[25] = second compound 3.16 µM, first compound 0.0316 µM
[26] = second compound 3.16 µM, first compound 0.1 µM
[27] = second compound 3.16 µM, first compound 0.316 µM
[28] = second compound 3.16 µM, first compound 1 µM
[29] = second compound 3.16 µM, first compound 3.16 µM
[30] = second compound 10 µM, first compound 0.01 µM
[31] = second compound 10 µM, first compound 0.0316 µM
[32] = second compound 10 µM, first compound 0.1 µM
[33] = second compound 10 µM, first compound 0.316 µM
[34] = second compound 10 µM, first compound 1 µM
[35] = second compound 10 µM, first compound 3.16 µM
[36] = curve of first compound, second compound 0.0316 µM
[37] = second compound 0.0316 µM, first compound 0.000316 µM
[38] = second compound 0.0316 µM, first compound 0.001 µM
[39] = second compound 0.0316 µM, first compound 0.00316 µM
[40] = second compound 0.0316 µM, first compound 0.01 µM
[41] = second compound 0.0316 µM, first compound 0.0316 µM
[42] = second compound 0.1 µM, first compound 0.000316 µM
[43] = second compound 0.1 µM, first compound 0.001 µM
[44] = second compound 0.1 µM, first compound 0.00316 µM
[45] = second compound 0.316 µM, first compound 0.000316 µM
[46] = second compound 0.316 µM, first compound 0.001 µM
[47] = second compound 0.316 µM, first compound 0.00316 µM
[48] = second compound 1 µM, first compound 0.000316 µM
[49] = second compound 1 µM, first compound 0.001 µM
[50] = second compound 1 µM, first compound 0.00316 µM
[51] = second compound 3.16 µM, first compound 0.000316 µM
[52] = second compound 3.16 µM, first compound 0.001 µM
[53] = second compound 3.16 µM, first compound 0.00316 µM
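Also: cells exposed to agents for seven days before viability read.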
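For viability, T/C in this document: 100% = DMSO vehicle control wells and lower values mean fewer viable cells.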

SMILES: CC(=O)OC12COC1CC(O)C1(C)C(=O)C(O)C3=C(C)C(OC(=O)C(O)C(NC(=O)OC(C)(C)C)c4ccccc4)CC(O)(C(OC(=O)c4ccccc4)C21)C3(C)C (stereo unspecified) + CC1OCC2(CCN(c3cnc(Sc4ccnc(N)c4Cl)c(N)n3)CC2)C1N
- IC50 [1]: > 3160 nM
- IC50 [2]: > 3160 nM
- IC50 [3]: > 3160 nM
- IC50 [4]: < 10 nM
- IC50 [5]: < 10 nM
- viability, T/C [6]: 61.6%
- viability, T/C [7]: 69.1%
- viability, T/C [8]: 60%
- viability, T/C [9]: 73.8%
- viability, T/C [10]: 66.5%
- viability, T/C [11]: 76.2%
- viability, T/C [12]: 70.4%
- viability, T/C [13]: 72.9%
- viability, T/C [14]: 65.5%
- viability, T/C [15]: 55.9%
- viability, T/C [16]: 66.9%
- viability, T/C [17]: 65.4%
- viability, T/C [18]: 91.1%
- viability, T/C [19]: 75.5%
- viability, T/C [20]: 84.9%
- viability, T/C [21]: 84.5%
- viability, T/C [22]: 84.3%
- viability, T/C [23]: 93.8%
- viability, T/C [24]: 47.4%
- viability, T/C [25]: 39.1%
- viability, T/C [26]: 50.6%
- viability, T/C [27]: 40.5%
- viability, T/C [28]: 44.1%
- viability, T/C [29]: 40.9%
- viability, T/C [30]: 41.6%
- viability, T/C [31]: 44.7%
- viability, T/C [32]: 42%
- viability, T/C [33]: 34.7%
- viability, T/C [34]: 42.6%
- viability, T/C [35]: 35%

SMILES: CC(=O)Nc1cccc(-n2c(=O)n(C3CC3)c(=O)c3c(Nc4ccc(I)cc4F)n(C)c(=O)c(C)c32)c1 + C=CC(=O)N1CCN(c2nc(OCC3CCCN3C)nc3c2CCN(c2cccc4cccc(C)c24)C3)CC1CC#N
- IC50 [36]: 7.53 nM
- IC50 [1]: 9.05 nM
- IC50 [2]: 4.73 nM
- IC50 [3]: 2.49 nM
- IC50 [4]: 0.141 nM
- viability, T/C (second compound 0.0316 µM, first compound 0.0001 µM): 79.5%
- viability, T/C [37]: 92.4%
- viability, T/C [38]: 81.2%
- viability, T/C [39]: 66.9%
- viability, T/C [40]: 44.9%
- viability, T/C [41]: 16.8%
- viability, T/C (second compound 0.1 µM, first compound 0.0001 µM): 82.2%
- viability, T/C [42]: 86.3%
- viability, T/C [43]: 72.8%
- viability, T/C [44]: 63.1%
- viability, T/C [6]: 50.4%
- viability, T/C [7]: 22.6%
- viability, T/C (second compound 0.316 µM, first compound 0.0001 µM): 76.1%
- viability, T/C [45]: 83.7%
- viability, T/C [46]: 61.6%
- viability, T/C [47]: 64.7%
- viability, T/C [12]: 31.5%
- viability, T/C [13]: 10%
- viability, T/C (second compound 1 µM, first compound 0.0001 µM): 93.3%
- viability, T/C [48]: 95.9%
- viability, T/C [49]: 60.6%
- viability, T/C [50]: 47%
- viability, T/C [18]: 25.4%
- viability, T/C [19]: 7%
- viability, T/C (second compound 3.16 µM, first compound 0.0001 µM): 57.5%
- viability, T/C [51]: 32.3%
- viability, T/C [52]: 16.7%
- viability, T/C [53]: 14.7%
- viability, T/C [24]: 4.17%
- viability, T/C [25]: 3.27%

SMILES: CC1COCCN1c1cc(-c2ccnn2C)c2ccnc(-c3ccn[nH]3)c2n1 (stereo unspecified) + C=CC(=O)N1CCN(c2nc(=O)n(-c3c(C)ccnc3C(C)C)c3nc(-c4c(O)cccc4F)c(F)cc23)C(C)C1
- IC50 [1]: > 3160 nM
- IC50 [2]: > 3160 nM
- IC50 [3]: > 3160 nM
- IC50 [4]: > 3160 nM
- IC50 [5]: 1000 nM
- viability, T/C [6]: 112%
- viability, T/C [7]: 104%
- viability, T/C [8]: 88.4%
- viability, T/C [9]: 109%
- viability, T/C [10]: 63.1%
- viability, T/C [11]: 54.8%
- viability, T/C [12]: 96.3%
- viability, T/C [13]: 96.2%
- viability, T/C [14]: 97.1%
- viability, T/C [15]: 77.6%
- viability, T/C [16]: 74.5%
- viability, T/C [17]: 55.1%
- viability, T/C [18]: 96%
- viability, T/C [19]: 105%
- viability, T/C [20]: 84.6%
- viability, T/C [21]: 76.6%
- viability, T/C [22]: 72.4%
- viability, T/C [23]: 61.7%
- viability, T/C [24]: 114%
- viability, T/C [25]: 110%
- viability, T/C [26]: 78.9%
- viability, T/C [27]: 79.5%
- viability, T/C [28]: 61.7%
- viability, T/C [29]: 71%
- viability, T/C [30]: 66%
- viability, T/C [31]: 62.9%
- viability, T/C [32]: 74.2%
- viability, T/C [33]: 43.8%
- viability, T/C [34]: 51.2%
- viability, T/C [35]: 58.7%

SMILES: CC(C)n1nc(-c2ccc3oc(N)nc3c2)c2c(N)ncnc21 + CNCc1ccccc1-c1csc(C(C)Nc2nc(C)nc3cc(OC)c(OC)cc23)c1
- IC50 [1]: 42.8 nM
- IC50 [2]: 90.1 nM
- IC50 [3]: 6.83 nM
- IC50 [4]: < 0.316 nM
- IC50 [5]: < 0.316 nM
- viability, T/C [42]: 88.7%
- viability, T/C [43]: 76.2%
- viability, T/C [44]: 66.1%
- viability, T/C [6]: 59.5%
- viability, T/C [7]: 53.2%
- viability, T/C [8]: 44.4%
- viability, T/C [45]: 82.3%
- viability, T/C [46]: 70.7%
- viability, T/C [47]: 66.2%
- viability, T/C [12]: 55.5%
- viability, T/C [13]: 45%
- viability, T/C [14]: 54.5%
- viability, T/C [48]: 57.9%
- viability, T/C [49]: 63.7%
- viability, T/C [50]: 60.5%
- viability, T/C [18]: 39.6%
- viability, T/C [19]: 43.2%
- viability, T/C [20]: 51.6%
- viability, T/C [51]: 0.56%
- viability, T/C [52]: 0.43%
- viability, T/C [53]: 0.72%
- viability, T/C [24]: 0.43%
- viability, T/C [25]: 1.9%
- viability, T/C [26]: 0.88%
- viability, T/C (second compound 10 µM, first compound 0.000316 µM): 0.94%
- viability, T/C (second compound 10 µM, first compound 0.001 µM): 0.17%
- viability, T/C (second compound 10 µM, first compound 0.00316 µM): 1.02%
- viability, T/C [30]: 0.26%
- viability, T/C [31]: 0.21%
- viability, T/C [32]: 0.37%

SMILES: COc1cc2nc(C)nc(NC(C)c3cc(N)cc(C(F)(F)F)c3)c2cc1OC1CCOC1 (stereo unspecified)
- IC50 (compound alone, run of 07/26/2021): 8.44 µM [middle of 6 runs]

SMILES: CN(C)C/C=C/C(=O)Nc1cc2c(Nc3ccc(F)c(Cl)c3)ncnc2cc1O[C@H]1CCOC1 + C=CC(=O)N1CCN(c2nc(OCC3CCCN3C)nc3c2CCN(c2cccc4cccc(C)c24)C3)CC1CC#N
- IC50 [36]: > 100 nM
- IC50 [1]: > 100 nM
- IC50 [2]: > 100 nM
- IC50 [3]: > 100 nM
- IC50 [4]: 0.902 nM
- viability, T/C [37]: 112%
- viability, T/C [38]: 114%
- viability, T/C [39]: 91.3%
- viability, T/C [40]: 102%
- viability, T/C [41]: 97.4%
- viability, T/C (second compound 0.0316 µM, first compound 0.1 µM): 86.3%
- viability, T/C [42]: 116%
- viability, T/C [43]: 93.8%
- viability, T/C [44]: 91.3%
- viability, T/C [6]: 85%
- viability, T/C [7]: 88%
- viability, T/C [8]: 85.7%
- viability, T/C [45]: 87%
- viability, T/C [46]: 110%
- viability, T/C [47]: 91.9%
- viability, T/C [12]: 78.3%
- viability, T/C [13]: 81.5%
- viability, T/C [14]: 72.2%
- viability, T/C [48]: 84.8%
- viability, T/C [49]: 78.8%
- viability, T/C [50]: 70.5%
- viability, T/C [18]: 83.6%
- viability, T/C [19]: 84.2%
- viability, T/C [20]: 78.7%
- viability, T/C [51]: 67.5%
- viability, T/C [52]: 52.7%
- viability, T/C [53]: 37.8%
- viability, T/C [24]: 27.6%
- viability, T/C [25]: 53.2%
- viability, T/C [26]: 47.7%
